Test results published in PubChem BioAssay AID651889 (Broad Institute, 2012).
The source made the active and inactive calls.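 How the source made its calls: active means IC50 under 25 times the IC50 of the reference antimalarial drug in the parasite growth test; inactive means the rest.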

System: P. falciparum NF54 in erythrocytes, 3H-hypoxanthine incorporation, 72 h
Assay: P. falciparum blood-stage growth inhibition, dose response, NF54 strain, plate reader, dry powder (AID 651889)

With `C[C@@H]1CN([C@@H](C)CO)C(=O)c2cccc(NC(=O)c3ccncc3)c2O[C@H]1CN(C)Cc1ccc(Oc2ccccc2)cc1` the IC50 was 580 nM (inactive).
